In US20110318302A1, “Cancer Treatment” (priority 2009, published 2011):

Test system: human renal cancer cell line Caki-1
Test: Caki-1 tumour mouse model, single and combination therapy (tumour volume)
Format: in vivo, BALB/c nude mice
Conditions: single agent; s.c. Caki-1 tumours; F8-IL2 20 μg i.v. 3x every 3rd day; sorafenib or sunitinib 60 mg/kg p.o. 7 days; huIFNa2b/muIFNa1 10.000 IU/10.000 IU s.c. 3x; two treatment cycles (days 11-17, 37-43)
Method: For the combination therapy, the human renal cancer cell line Caki-1 (clear cell carcinoma from kidney; ATCC) was cultured in DMEM containing 10% fetal bovine serum and 2 mM L-glutamine (all Invitrogen).
Female BALE/c nude mice were obtained from Charles River Laboratories. All experiments were performed according to Swiss regulations and under a project license granted by the Veterinäramt des Kantons Zürich.
Sorafenib tosylate (Nexavar, Bayer Schering) and sunitinib malate (Sutent, Pfizer) were obtained in the commercially available forms of 200 mg tablets and 50 mg capsules, respectively. The total tablet weight of sorafenib is 350 mg and an index of 1.75 was used to keep the molarity in terms of active compound. Sorafenib tablets were pulverized with mortar and pestle and kept from light in a desiccator. For in vivo administration, pulverized sorafenib was dissolved in a solution of CremophorEL:Ethanol:H2O (12.5%:12.5%:75%). The content of a sunitinib malate capsule was 167 mg and a correction factor of 3.3 was used for molarity adjustment. […]
Mice were monitored daily and tumor volumes were measured three times per week with a digital caliper using the following formula: volume=length×width^2×0.5. […] Tumor volumes are expressed as mean±SE (standard error). […]

Structure (SMILES): CNC(=O)c1cc(Oc2ccc(NC(=O)Nc3ccc(Cl)c(C(F)(F)F)c3)cc2)ccn1 [Sorafenib]
- tumour burden (tumour volume) versus PBS control: little or no effect on tumour burden
